{"source": "paper PMC5312080", "about": "(mBio, 2017)", "key": {"[1]": {"tested_on": "M. tuberculosis H37Rv", "assay": "Microdilution alamarBlue assay (MABA) MIC", "type": "cell-based", "settings": "Mycobacterium tuberculosis"}, "[2]": {"tested_on": "M. bovis BCG", "assay": "microbe, parasite or virus in culture", "type": "cell-based", "settings": "Mycobacterium tuberculosis variant bovis BCG"}, "[3]": {"tested_on": "BCG::pMV306PHsp60 strains overexpressing menG", "type": "cell-based, Mycobacterium bovis BCG"}, "[4]": {"tested_on": "M. fortuitum", "assay": "MABA MIC", "type": "cell-based, Mycobacterium fortuitum", "settings": "Mycolicibacterium fortuitum"}, "[5]": {"tested_on": "M. abcessus", "assay": "MABA MIC", "type": "cell-based, Mycobacterium abscessus", "settings": "Mycobacteroides abscessus"}, "[6]": {"tested_on": "M. smegmatis", "assay": "MABA MIC", "type": "cell-based, Mycobacterium smegmatis", "settings": "Mycolicibacterium smegmatis"}, "[7]": {"tested_on": "M. marinum", "assay": "MABA MIC", "type": "cell-based", "settings": "Mycobacterium marinum"}, "[8]": {"tested_on": "M. avium", "assay": "MABA MIC", "type": "cell-based, Mycobacterium avium subsp. avium", "settings": "Mycobacterium avium"}, "[9]": {"tested_on": "A. baumanii", "assay": "MABA MIC", "type": "cell-based", "settings": "Acinetobacter baumannii"}, "[10]": {"tested_on": "E. cloacae", "assay": "MABA MIC", "type": "cell-based", "settings": "Enterobacter cloacae"}, "[11]": {"tested_on": "E. faecium", "assay": "MABA MIC", "type": "cell-based", "settings": "Enterococcus faecium"}, "[12]": {"tested_on": "Klebsiella pneumoniae", "assay": "MABA MIC", "type": "cell-based"}, "[13]": {"tested_on": "Pseudomonas aeruginosa", "assay": "MABA MIC", "type": "cell-based"}, "[14]": {"tested_on": "S. aureus MRSA", "assay": "MABA MIC", "type": "cell-based", "settings": "Staphylococcus aureus"}, "[15]": {"tested_on": "S. epidemis 14490", "assay": "MABA MIC", "type": "cell-based", "settings": "Staphylococcus epidermidis"}, "[16]": {"tested_on": "Bacillus cereus", "assay": "MABA MIC", "type": "cell-based"}, "[17]": {"tested_on": "Burkholderia cepacia", "assay": "MABA MIC", "type": "cell-based"}, "[18]": {"tested_on": "Yersinia pseudotuberculosis", "assay": "microbe, parasite or virus in culture", "type": "cell-based"}, "[19]": {"tested_on": "Brucella neotomae", "assay": "microbe, parasite or virus in culture", "type": "cell-based"}, "[20]": {"tested_on": "Francisella philomiragia", "assay": "microbe, parasite or virus in culture", "type": "cell-based"}, "[21]": {"tested_on": "Legionella pneumophila", "assay": "microbe, parasite or virus in culture", "type": "cell-based"}, "[22]": {"tested_on": "nontuberculous mycobacteria (NTM)", "assay": "organism not typed", "type": "cell-based"}, "[23]": {"tested_on": "PcydAB promoter (cydAB operon) reporter", "type": "cell-based, Mycobacterium bovis BCG"}, "[24]": {"tested_on": "M. tuberculosis mc^26206 in J774A.1 murine macrophages", "type": "cell-based", "settings": "J774A.1 macrophages, 3 days, concentrations equivalent to in vitro MIC"}, "[25]": {"tested_on": "BCG overexpressing menG_F118L", "type": "cell-based", "settings": "20 µg/ml of DG70, 7 days, CFU"}, "[26]": {"tested_on": "menaquinone biosynthesis (MenG)", "type": "cell-based, Mycobacterium bovis BCG"}, "[27]": {"tested_on": "mycobacterial oxygen consumption", "assay": "Oxygen consumption, methylene blue decolorization", "type": "cell-based"}, "[28]": {"tested_on": "ATP synthesis in BCG", "type": "cell-based, Mycobacterium bovis BCG"}, "[29]": {"tested_on": "nonreplicating M. tuberculosis", "type": "cell-based, Mycobacterium tuberculosis", "settings": "for reduction of CFU: 7 days, M. tuberculosis starved 6 weeks in PBS"}, "[30]": {"tested_on": "M. tuberculosis H37Rv", "assay": "Checkerboard alamarBlue compound interaction assay", "type": "cell-based, Mycobacterium tuberculosis"}, "[31]": {"tested_on": "BCG", "type": "cell-based, Mycobacterium bovis BCG"}, "[32]": {"assay": "in vitro", "settings": "African green monkey"}, "[33]": {"assay": "in vitro", "settings": "mouse, microsomes"}}, "note": "Like-named read-outs stand apart in the source and are kept apart here.", "data": [{"molecule": "COc1ccc(-c2cc(NC(=O)c3ccc(F)cc3Cl)ccc2OC)cc1", "note": "[DG70, 2-chloro-N-(4',6-dimethoxy-[1,1'-biphenyl]-3-yl)-4-fluorobenzamide]", "values": [{"measurement": "MIC90", "setting": "[1]; H37Rv + 400 µM MK4, read-out: MIC90", "result": 9.6, "unit": "µg/mL"}, {"measurement": "MIC90", "setting": "[1]; H37Rv, lab strain, […], read-out: MIC90", "result": 4.8, "unit": "µg/mL"}, {"measurement": "MIC", "setting": "[1]; M. tuberculosis (Table S1), read-out: MIC", "result": 4.8, "unit": "µg/mL"}, {"measurement": "MIC", "setting": "[1]; Table S2, parent H37Rv, read-out: MIC in Mtb H37Rv", "result": 2.4, "unit": "µg/mL"}, {"measurement": "MIC", "setting": "[1]; whole-cell activity versus M. tuberculosis, […], read-out: MIC", "result": 2.4, "unit": "µg/mL"}, {"measurement": "MIC", "setting": "[2]", "result": 2.4, "unit": "µg/mL"}, {"measurement": "increase of DG70 MIC on overexpression of menG", "setting": "[3]", "result": 4, "unit": "×"}, {"measurement": "MIC", "setting": "[4]", "result": "> 40", "unit": "µg/mL"}, {"measurement": "MIC", "setting": "[5]", "result": "> 40", "unit": "µg/mL"}, {"measurement": "MIC", "setting": "[6]", "result": "> 40", "unit": "µg/mL"}, {"measurement": "MIC", "setting": "[7]", "result": "> 40", "unit": "µg/mL"}, {"measurement": "MIC", "setting": "[8]", "result": "> 40", "unit": "µg/mL"}, {"measurement": "MIC", "setting": "[9]", "result": "> 20", "unit": "µg/mL"}, {"measurement": "MIC", "setting": "[10]", "result": "> 20", "unit": "µg/mL"}, {"measurement": "MIC", "setting": "[11]", "result": "> 20", "unit": "µg/mL"}, {"measurement": "MIC", "setting": "[12]", "result": "> 20", "unit": "µg/mL"}, {"measurement": "MIC", "setting": "[13]", "result": "> 20", "unit": "µg/mL"}, {"measurement": "MIC", "setting": "[14]", "result": "> 20", "unit": "µg/mL"}, {"measurement": "MIC", "setting": "[15]", "result": "> 20", "unit": "µg/mL"}, {"measurement": "MIC", "setting": "[16]", "result": "> 40", "unit": "µg/mL"}, {"measurement": "MIC", "setting": "[17]", "result": "> 40", "unit": "µg/mL"}, {"measurement": "MIC", "setting": "[18]", "result": "> 40", "unit": "µg/mL"}, {"measurement": "MIC", "setting": "[19]", "result": "> 40", "unit": "µg/mL"}, {"measurement": "MIC", "setting": "[20]", "result": "> 40", "unit": "µg/mL"}, {"measurement": "MIC", "setting": "[21]", "result": "> 40", "unit": "µg/mL"}, {"measurement": "MIC", "setting": "[22]", "result": "> 100", "unit": "µM"}, {"measurement": "activity against NTM and other bacteria", "setting": "[22]", "result": "lacked activity"}, {"measurement": "peak PcydAB induction", "setting": "[23]", "result": 3.1, "unit": "fold"}, {"measurement": "intracellular M. tuberculosis growth in macrophages", "setting": "[24]", "result": "inhibited intracellular M. tuberculosis growth"}, {"measurement": "growth inhibition of strain overexpressing menG_F118L", "setting": "[25]", "result": "completely resistant"}, {"measurement": "[14C]methyl incorporation into menaquinone", "setting": "[26]", "result": "complete suppression"}, {"measurement": "oxygen consumption (methylene blue decolorization at 665 nm)", "setting": "[27]", "result": "strongly prevented decolorization of methylene blue"}, {"measurement": "effect of MK4 supplementation on inhibition of oxygen consumption", "setting": "[27]; 400 µM MK4", "result": "rescued"}, {"measurement": "effect of MK4 supplementation on inhibition of ATP synthesis", "setting": "[28]", "result": "rescued"}, {"measurement": "intracellular ATP levels", "setting": "[28]", "result": "significant decrease in ATP levels"}, {"measurement": "effect of MK4 on killing of nutrient-deprived M. tuberculosis", "setting": "[29]; 400 µM MK4", "result": "reversed"}, {"measurement": "reduction of CFU", "setting": "[29]; 5× MIC", "result": 4, "unit": "log10"}, {"measurement": "reduction of CFU", "setting": "[29]; 10× MIC", "result": 6.5, "unit": "log10"}, {"measurement": "MIC In combination", "setting": "[30]; DG70 in combination with BDQ", "result": 1.5, "unit": "µM"}, {"measurement": "MIC In combination", "setting": "[30]; DG70 in combination with EMB", "result": 1.5, "unit": "µM"}, {"measurement": "MIC In combination", "setting": "[30]; DG70 in combination with INH", "result": 3.12, "unit": "µM"}, {"measurement": "MIC In combination", "setting": "[30]; DG70 in combination with PA824", "result": 0.35, "unit": "µM"}, {"measurement": "MIC In combination", "setting": "[30]; DG70 in combination with RIF", "result": 3.1, "unit": "µM"}, {"measurement": "MIC In combination", "setting": "[30]; DG70 in combination with THZ", "result": 3.12, "unit": "µM"}, {"measurement": "FIC", "setting": "[30]; FIC of DG70 in combination with BDQ", "result": 0.1}, {"measurement": "FIC", "setting": "[30]; FIC of DG70 in combination with EMB", "result": 0.12}, {"measurement": "FIC", "setting": "[30]; FIC of DG70 in combination with INH", "result": 0.2}, {"measurement": "FIC", "setting": "[30]; FIC of DG70 in combination with PA824", "result": 0.03}, {"measurement": "FIC", "setting": "[30]; FIC of DG70 in combination with RIF", "result": 0.25}, {"measurement": "FIC", "setting": "[30]; FIC of DG70 in combination with THZ", "result": 0.2}, {"measurement": "MIC", "setting": "[30]; Mycobacterium tuberculosis, H37RV, drug alone, checkerboard", "result": 12.5, "unit": "µM"}, {"measurement": "effect of MK4 pretreatment on bactericidal activity", "setting": "[31]", "result": "could be reversed"}, {"measurement": "killing (drop in CFU) over 21 days", "setting": "[31]", "result": 5, "unit": "log10"}, {"measurement": "killing in 4 days", "setting": "[31]", "result": "less than 1 log10"}, {"measurement": "reduction of cultures after 2 days of treatment", "setting": "[31]", "result": "≤ 1", "unit": "log10"}, {"measurement": "CC50", "setting": "[32]; 50% cytotoxic concentration (CC50), Vero cells", "result": "> 77", "unit": "µg/mL"}, {"measurement": "CC50", "setting": "[32]; CC50, Vero cells, 48 h, MTT", "result": "> 80", "unit": "µg/mL"}, {"measurement": "microsomal CLint", "setting": "[33]", "result": 921, "unit": "µL/min/mg"}]}]}
